Measured values: US20240239823A1, “PHOSPHINATE ESTER-CONTAINING DYES HAVING TUNABLE PROPERTIES AND METHODS OF MAKING THE SAME” (University of Virginia Patent Foundation, priority 2021, published 2024)

Tests used:
[1] = Aggregation in aqueous solution (absorbance versus concentration, SDS addition); assay type: physicochemical; details: for effect of surfactant on absorbance: addition of 0.1% SDS, water; for aggregation / H-aggregate formation (blue-shifted absorbance band): aqueous solutions; for aggregation / H-aggregate formation (blue-shifted absorbance band) / linearity of absorbance versus concentration: increasing concentrations; for linearity of absorbance versus concentration: in water
Excerpt: FIG. 2.2A: The structure of methylene blue (MB) and NR751.

[2] = Quenching of dye absorbance by glutathione (GSH); assay type: physicochemical; details: absence versus presence of GSH
Excerpt: The absorbance of NR708 in the absence or presence of GSH is shown.
In order to improve the chemical stability of NR dyes to nucleophiles found in biological systems, such as glutathione (GSH), bulky substituents were introduced to protect the C9 position of the dyes from nucleophilic attack. Accordingly, derivatives of NR700 and NR666, termed NR708 and NR675, respectively, were synthesized that bear bulky substituents on the pendant phenyl ring proximal to the C9 position of the dye (FIG. 3.1). […] The improved chemical stability of these dyes will provide brighter probes for imaging applications.

RAW 264.7 cells = experiment: Confocal imaging of RAW 264.7 cells with or without stimulation to produce endogenous HOCl; assay type: cell-based; details: 50 μM; cells producing HOCl
Experimental: FIGS. 5.2A-5.2C show phosphinate-containing dyes as gated small molecule delivery vehicles for cytotoxic compounds in cells. FIG. 5.2A: The structure of NR—HOCl-1541B (left). Selective reaction with HOCl results in the gated release of 1541B, a cytotoxic compound, and a fluorescent NR dye (right) FIG. 5.2B: Viability of RAW 264.7 macrophages in the presence or absence of stimulation to produce endogenous HOCl (LPS and PMA), cells were incubated with 50 μM 1541B or NR—HOCl-1541B where indicated. FIG. 5.2C: Confocal imaging of RAW 264.7 cells incubated with 50 μM NR—HOCl-1541B in the presence or absence of stimulation to produce endogenous HOCl.

aggregation / H-aggregate formation (blue-shifted absorbance band) [1] | quenching / change of absorbance in the presence of glutathione (GSH) [2] | Compound | effect of surfactant on absorbance [1] | linearity of absorbance versus concentration [1] | fluorescence and payload delivery in cells (RAW 264.7 cells)
significantly reduced aggregation | – | CC1=CC(=[N+](C)C)C=C2C1=Nc1c(C)cc(N(C)C)cc1P2(=O)O [NR751] | No change is observed in the absorbance | clear linear increase in absorbance versus concentration | –
increase in H-aggregate formation | – | CN(C)c1ccc2nc3ccc(=[N+](C)C)cc-3sc2c1 [MB, methylene blue, reference compound] | reduces the intensity of the blue-shifted H-Aggregate absorption band | clear deviation from linearity | –
– | virtually no quenching | COc1cccc(OC)c1C1=C2C=CC(=[N+](C)C)C=C2P(=O)(O)c2cc(N(C)C)ccc21 [NR675] | – | – | –
– | – | CN(C)c1ccc2c(c1)P(=O)(Oc1cccc3cc(C(=O)Nc4cccc(-c5cn6ccccc6n5)c4)c(=O)oc13)c1cc(N(C)C)ccc1C21SCc2ccccc21 (centres unmarked) [NR—HOCl-1541B] | – | – | Clear evidence of fluorescence, and payload delivery
